Measurements published in patent publication US20240041795A1, “Cyclic Ketone Compounds and Applications Thereof” (priority 2021, published 2024).

Tests used:
Male ICR mice = assay: Antagonism of test compounds against general anesthesia induced by general anesthetics (total anesthesia time, loss to recovery of righting reflex); format: in vivo
Description: The preparation method: A suitable amount of the compound to be tested was weighed, to which was added a suitable amount of medium and long chain fat emulsion injection with a pipette, and thus a 50 mmol/L solution of the test compound was prepared. After filtering with a 0.22 μm microporous membrane, the solution was immediately used.
Male ICR mice weighing 25 g±1 g were randomly divided into 8 groups, with 8 mice in each group. […] After maintaining the disappearance of the mouse righting reflex for 30 seconds, the solution of each test compound (50 mg/kg, using medium and long chain fat emulsion injection as solvent) or equal volume of medium and long chain fat emulsion injection was respectively injected, and the total anesthesia time of the mice was observed and recorded. Among them, the total anesthesia time refers to the time from the disappearance of the mouse righting reflex to the recovery of the mouse righting reflex.

male SD rats = assay: Antagonism of compounds against general anesthesia maintained by continuous infusion of propofol (anesthesia recovery/awakening time); format: in vivo; conditions: for The average of awakening time: SD rats
Description: The preparation method was the same as that of Example 1.
24 male SD rats with a body weight range of 250-300 g were randomly divided into 4 groups, with 6 rats in each group. Continuous anesthesia induction was performed using propofol (22.11 mg/kg, 1.5×EDO, and then maintained at a rate of 1 mg/(kg min) for 30 min. After drug withdrawal, compound 85 at doses of 10 mg/kg, 20 mg/kg, and 50 mg/kg, as well as 50 mg/kg of the test compound solutions (using medium and long chain fat emulsion injection as solvent) or equal volume of medium and long chain fat emulsion injection was immediately injected, respectively, and the anesthesia recovery time of the […] after stopping the medication was observed and recorded. Among them, the anesthesia recovery time refers to the time from the cessation of propofol infusion to the recovery of the righting reflex in mice.

[1] = Etomidate 4.48 mg/kg (2×ED50) i.v. tail vein induction, test compound 50 mg/kg in fat emulsion injected after 30 s loss of righting reflex
[2] = Propofol 22.11 mg/kg (1.5×ED50) i.v. tail vein induction, test compound 50 mg/kg in fat emulsion injected after 30 s loss of righting reflex
[3] = Remimazolam 57.34 mg/kg (1.5×ED50) i.v. tail vein induction, test compound 50 mg/kg in fat emulsion injected after 30 s loss of righting reflex
[4] = Ketamine induction (dose not given), test compound 50 mg/kg in fat emulsion
[5] = test drug 50 mg/kg after withdrawal of propofol infusion (1 mg/(kg min) for 30 min)

Row | SMILES | The average of total anesthesia time (Male ICR mice; [1]) | The average of total anesthesia time (Male ICR mice; [2]) | The average of total anesthesia time (Male ICR mice; [3]) | The average of awakening time (male SD rats; [5]) | other results
1 | CC12CC(O)C(CC1=O)C2(C)C (stereo not drawn) [Compound 616] | 1.15 ± 0.83 min | 2.70 ± 0.63 min | 0.94 ± 0.30 min |  | 
2 | CC12CCC(CC1=O)C2(C)CBr (stereo not drawn) [Compound 150] |  | 1.26 ± 0.17 min |  |  | 
3 | CC12CCC(CC1=O)C2(C)C (stereo not drawn) [Compound 85] | 0.46 ± 0.25 min | 0.47 ± 0.21 min | 0.45 ± 0.21 min | 0.36 ± 0.98 min | The average of total anesthesia time (Male ICR mice; [4]): 3.01 ± 0.45 min; Reversal of the anesthesia maintenance effect of continuous infusion of propofol (male SD rats; continuous propofol infusion, 10, 20, 50 mg/kg): could dose-dependently shorten the anesthesia recovery time of rats; The average of awakening time (male SD rats; test drug 10 mg/kg after withdrawal of propofol infusion (1 mg/(kg min) for 30 min)): 4.11 ± 1.22 min; The average of awakening time (male SD rats; test drug 20 mg/kg after withdrawal of propofol infusion (1 mg/(kg min) for 30 min)): 3.68 ± 1.12 min
4 | CC1(C)C2CCC1(CBr)C(=O)C2 (stereo not drawn) [Compound 270] | 2.50 ± 0.99 min | 2.49 ± 0.15 min | 1.01 ± 0.05 min |  | 
5 | CC12CCC(C(C(=O)O)C1=O)C2(C)C (stereo not drawn) [Compound 67] |  | 2.14 ± 0.32 min |  | 3.04 ± 0.18 min | 
6 | CC1(C)C2CCC1(CO)C(=O)C2 (stereo not drawn) [Compound 273] |  | 1.43 ± 0.43 min |  |  | 
7 | CC1(Br)C(=O)C2(C)CCC1C2(C)C (stereo not drawn) [Compound 120] |  |  |  |  | The average of total anesthesia time (Male ICR mice; [4]): 3.72 ± 0.24 min
8 | CC1(C)C2CC(=O)C1(C)C(Cl)C2 (stereo not drawn) [Compound 631] |  | 3.30 ± 0.79 min | 0.70 ± 0.32 min | 2.85 ± 0.58 min | 
9 | CC12CC(Br)C(CC1=O)C2(C)C (stereo not drawn) [Compound 608] |  | 4.08 ± 0.34 min |  |  | 
10 | [2H]C1C(=O)C2(C)CCC1C2(C)C (stereo not drawn) [Compound 664] |  |  |  |  | The average of total anesthesia time (Male ICR mice; [4]): 3.20 ± 0.77 min
11 | CC1(C)C2CC(=O)C1(C)C(Cl)(Br)C2 (stereo not drawn) [Compound 643] | 2.80 ± 0.67 min |  |  | 1.01 ± 0.29 min | 
12 | CC12CCC(C(I)C1=O)C2(C)C (stereo not drawn) [Compound 87] | 1.56 ± 0.45 min |  | 0.84 ± 0.78 min |  | 
13 | CC12CCC(CC1=O)C2(C)C(Cl)Br (stereo not drawn) [Compound 262] |  |  |  |  | The average of total anesthesia time (Male ICR mice; [4]): 3.92 ± 0.83 min
14 | CC12CCC(CC1=O)C2(C)CC(=O)O (stereo not drawn) [Compound 139] | 2.64 ± 0.89 min |  | 1.29 ± 0.63 min |  | 
15 | CC12CCC(CC(=O)O)(CC1=O)C2(C)C (stereo not drawn) [Compound 572] |  |  | 0.85 ± 0.37 min |  | 
16 | CC1(C)C2CCC1(CCl)C(=O)C2 (stereo not drawn) [Compound 269] |  | 2.15 ± 0.98 min | 1.39 ± 0.45 min | 3.29 ± 0.81 min | 
17 | CC1(C)[C@H]2CC[C@]1(C)C(=O)C2 [Compound 171] | 1.97 ± 0.07 min | 0.42 ± 0.32 min | 0.73 ± 0.57 min | 0.34 ± 0.89 min | The average of total anesthesia time (Male ICR mice; [4]): 3.64 ± 0.89 min
18 | CC12CCC(CC1=O)C2(C)CO (stereo not drawn) [Compound 157] | 2.08 ± 0.32 min | 2.52 ± 0.21 min |  |  | 
19 | CC1C(=O)C2(C)CCC1(C)C2 (stereo not drawn) [Compound 581] | 1.07 ± 0.32 min | 2.22 ± 0.27 min | 1.32 ± 0.31 min | 4.66 ± 0.60 min | 

Row | SMILES | The average of total anesthesia time (Male ICR mice; [1]) | The average of total anesthesia time (Male ICR mice; [2]) | The average of total anesthesia time (Male ICR mice; [3]) | The average of awakening time (male SD rats; [5]) | other results
20 | CCC1(C)C2CCC1(C)C(=O)C2 (stereo not drawn) [Compound 163] | 2.17 ± 0.60 min | 1.51 ± 0.51 min | 0.77 ± 0.02 min | 1.33 ± 0.79 min | 
21 | CC12CC(Cl)C(CC1=O)C2(C)C (stereo not drawn) [Compound 610] |  |  | 1.32 ± 0.06 min | 2.72 ± 0.36 min | 
22 | CC12CCC(Br)(CC1=O)C2(C)C (stereo not drawn) [Compound 561] | 2.03 ± 0.61 min |  |  |  | 
23 | CC12CCC(CC1=O)C2(C)CI (stereo not drawn) [Compound 135] | 1.72 ± 0.50 min |  |  |  | 
24 | CC12CCC(F)(CC1=O)C2(C)C (stereo not drawn) [Compound 565] | 0.87 ± 0.93 min | 2.40 ± 0.89 min |  | 2.58 ± 0.56 min | The average of total anesthesia time (Male ICR mice; [4]): 3.46 ± 0.15 min
25 | CC1CC2CC(=O)C1(C)C2(C)C (stereo not drawn) [Compound 661] |  | 2.89 ± 0.64 min | 0.55 ± 0.76 min | 2.39 ± 0.75 min | 
26 | CC12CCC(C(Br)C1=O)C2(C)C (stereo not drawn) [Compound 86] |  | 1.56 ± 0.21 min | 1.49 ± 0.62 min |  | 
27 | CC12CCC(O)(CC1=O)C2(C)C (stereo not drawn) [Compound 563] |  | 2.62 ± 0.18 min |  |  | 
28 | CC1(C)C2CC(=O)C1(C)C(Br)C2 (stereo not drawn) [Compound 633] | 0.96 ± 0.92 min | 2.04 ± 0.63 min |  | 2.64 ± 0.19 min | The average of total anesthesia time (Male ICR mice; [4]): 3.35 ± 0.90 min
29 | CC12CCC(CC1=O)C2(C)CO (stereo not drawn) [Compound 140] | 2.05 ± 0.33 min | 4.13 ± 0.20 min | 1.16 ± 0.92 min |  | 
30 | CC1C(=O)CC2(C(C)C)CC12 (stereo not drawn) [Compound 580] | 1.36 ± 0.84 min | 3.12 ± 0.12 min | 0.69 ± 0.25 min | 2.76 ± 0.20 min | 
31 | CC(=O)OC1CC2(C)C(=O)CC1C2(C)C (stereo not drawn) [Compound 626] | 2.05 ± 0.54 min |  |  |  | 
32 | CC12CCC(C(Cl)C1=O)C2(C)C (stereo not drawn) [Compound 168] |  |  | 0.86 ± 0.42 min |  | 
33 | CSC1C(=O)C2(C)CCC1C2(C)C (stereo not drawn) [Compound 68] | 2.11 ± 0.54 min | 4.05 ± 0.15 min |  |  | 
34 | CC12CCC(CC1=O)C2(C)CBr (stereo not drawn) [Compound 130] |  | 1.79 ± 0.09 min |  | 3.41 ± 0.52 min | 
35 | CC1CCC(C(C)C)CC1=O (stereo not drawn) [Compound 582] | 1.27 ± 0.83 min | 1.39 ± 0.08 min | 1.49 ± 0.21 min | 0.96 ± 0.23 min | 
36 | CC12CCC(C(=O)C1=O)C2(C)C (stereo not drawn) [Compound 104] |  |  |  |  | The average of total anesthesia time (Male ICR mice; [4]): 2.67 ± 0.30 min
37 | CC1(CBr)C2CCC1(CBr)C(=O)C2Br (stereo not drawn) [Compound 70] |  |  |  |  | The average of total anesthesia time (Male ICR mice; [4]): 3.49 ± 0.40 min
